Measurements taken from ChEMBL document CHEMBL1136120, “Effect of catechol derivatives on cell growth and lipoxygenase activity” (Bioorg Med Chem Lett, 2003).

Columns and labels:
MAC16 [1] = experiment: Effect on metabolism of arachidonic acid for 5-HETE production through 15-LOX (15-lipoxygenase) pathway; format: functional, Mus musculus
MAC13 = experiment: Inhibitory activity against MAC13 cell lines; format: functional, cell-based; details: Mus musculus
MAC16 [2] = experiment: Inhibitory activity against MAC16 cell lines; format: functional, cell-based; details: Mus musculus
MAC16 [3] = experiment: Effect on metabolism of arachidonic acid for 5-HETE production through 5-LOX (5-lipoxygenase) pathway; format: functional, Mus musculus
MAC16 [4] = experiment: Effect on metabolism of arachidonic acid for 5-HETE production through 12-LOX (12-lipoxygenase) pathway; format: functional, Mus musculus
[5] = biological target: Polyunsaturated fatty acid lipoxygenase ALOX15 (Oryctolagus cuniculus) (UniProt P12530); experiment: Inhibition of rabbit reticulocyte 15-lipoxygenase by compound (30 uM)
MAC16 [6] = experiment: Effect on metabolism of arachidonic acid for 15-HETE production through 15-LOX (15-lipoxygenase) pathway; format: functional, Mus musculus
MAC16 [7] = experiment: Effect on metabolism of arachidonic acid for 12-HETE production through 12-LOX (12-lipoxygenase) pathway; format: functional, Mus musculus

Chain of Polyunsaturated fatty acid lipoxygenase ALOX15 (Oryctolagus cuniculus) (P12530 whole entry, looked up): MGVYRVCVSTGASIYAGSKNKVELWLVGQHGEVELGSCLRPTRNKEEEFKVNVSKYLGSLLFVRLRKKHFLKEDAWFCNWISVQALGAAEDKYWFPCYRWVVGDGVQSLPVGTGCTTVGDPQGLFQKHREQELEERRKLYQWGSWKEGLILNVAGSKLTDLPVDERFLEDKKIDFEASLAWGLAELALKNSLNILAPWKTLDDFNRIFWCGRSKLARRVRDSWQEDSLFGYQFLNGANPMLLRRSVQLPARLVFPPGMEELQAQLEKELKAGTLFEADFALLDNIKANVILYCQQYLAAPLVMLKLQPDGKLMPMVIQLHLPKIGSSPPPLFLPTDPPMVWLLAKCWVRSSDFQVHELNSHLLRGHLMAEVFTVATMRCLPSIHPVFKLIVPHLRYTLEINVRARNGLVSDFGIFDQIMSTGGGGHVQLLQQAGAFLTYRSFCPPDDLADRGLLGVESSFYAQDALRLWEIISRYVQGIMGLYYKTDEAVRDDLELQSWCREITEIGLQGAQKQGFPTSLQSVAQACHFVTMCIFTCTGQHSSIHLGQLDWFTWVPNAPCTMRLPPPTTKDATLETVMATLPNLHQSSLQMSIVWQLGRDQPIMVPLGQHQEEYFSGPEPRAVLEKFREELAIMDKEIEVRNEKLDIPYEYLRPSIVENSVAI

| SMILES | IC50 (MAC13) [µM] | IC50 (MAC16 [2]) [µM] | inhibition [5] [%] | Eicosanoid production (MAC16 [3]) [pM 2hr-1] | further results |
| --- | --- | --- | --- | --- | --- |
| COc1ccccc1C(=O)Nc1ccc(CCC(=O)Nc2ccc3c(c2)OC(C)(CCc2ccccc2)O3)cc1 (configuration not stated) | > 50 | > 50 |  | 110 | Eicosanoid production (MAC16 [1]): 91.5 pM 2hr-1; Eicosanoid production (MAC16 [4]): 78 pM 2hr-1 |
| O=C(Nc1ccc(/N=C(\S)Nc2ccc(O)c(O)c2)cc1)c1ccccc1O |  |  | 103 |  |  |
| CC1=C(C)C(=O)C(Cc2cccnc2)=C(C)C1=O | 6.3 | 4.75 | 3 | 13.3 | Eicosanoid production (MAC16 [1]): 22.2 pM 2hr-1; Eicosanoid production (MAC16 [4]): 15 pM 2hr-1 |
| CCCCCCCc1ccc(C(=O)Nc2ccc(O)c(O)c2)cc1 | 0.9 | 1 |  |  |  |
| O=C(CCc1ccc(NC(=O)c2ccccc2O)cc1)Nc1ccc(O)c(O)c1 |  |  | 99 |  |  |
| O=C(Nc1ccc(O)c(O)c1)c1ccc(NCc2ccccc2O)cc1 |  |  | 103 |  |  |
| O=C(CCc1cccc(NC(=O)c2ccccc2O)c1)Nc1ccc(O)c(O)c1 | 0.33 | 2.6 | 102 | 4.7 | Eicosanoid production (MAC16 [6]): 5.3 pM 2hr-1; Eicosanoid production (MAC16 [7]): 7.8 pM 2hr-1 |

The next lines start with results.

| IC50 (MAC13) [µM] | IC50 (MAC16 [2]) [µM] | inhibition [5] [%] | SMILES | Eicosanoid production (MAC16 [3]) [pM 2hr-1] | further results |
| --- | --- | --- | --- | --- | --- |
|  |  | 100 | O=C(Nc1ccc(O)c(O)c1)c1ccc(NC(=O)c2ccccc2O)cc1 |  |  |
|  |  | 104 | O=C(Nc1ccc(NC(=O)c2ccccc2O)cc1)Nc1ccc(O)c(O)c1 |  |  |
| 3 | 300 | 102 | O=C(/C=C/c1ccc(NC(=O)c2ccccc2O)cc1)Nc1ccc(O)c(O)c1 |  |  |
